Measured values: patent publication US20190203254A1, “CORTICAL NEURON CELL MODEL OF ALZHEIMER'S DISEASE BASED ON BMI1 DEFICIENCY, AND USES THEREOF” (9636137 Canada Inc., priority 2016, published 2019)

Legend:
shBMI1 neurons [1] = assay: Confocal immunofluorescence for oligomeric amyloid (NU1) and Ab42 (PA3) in shBMI1 neurons treated with BSI (FIG. 3G); type: cell-based, human; settings: BSI vs vehicle control
Description: (§1) FIG. 3 is a panel with pictures and graphs illustrating that BMI1 deficiency in neurons results in p-Tau and amyloid accumulation. FIG. 3A: p-Tau (PHF1) accumulation in shBMI1 neurons but not in shCTL neurons (day 14). Scale bar: 40 mm. FIG. 3B: p-Tau (PHF1) accumulation in broken axonal segments of glutamatergic shBMl1 neurons (arrows), and co-localization of p-Tau with vGLUT1 in axonal swellings (arrows in the inset). Scale bar: 40 mm. FIG. 3C: Quantification of PHF1-positive neurons and of p-Tau foci/axon in shCTL (n=3) and shBMI1 (n=3) cultures. All values are mean±SEM. (*) P<0.05; (**) P<0.01 by Student's unpaired t-test. FIG. 3D: Confocal immunofluorescence for the apoptosis marker activated caspase-3 in shCTL and shBMl1 cultures. Scale bar: 40 mm. FIG. 3E: Quantification of activated caspase-3 positive cells in GABA+ and GABA− neuronal populations. All values are mean±SEM. (*) P<0.05 by Student's unpaired t-test. FIG. 3F: Amyloid accumulation in shBMl1 neurons as compared to shCTL neurons using the MOAB2 or PA3 antibodies. Scale bars: 40 mm. FIG. 3G: Confocal immunofluorescence for oligomeric amyloid (NU1) and Ab42 (PA3) of shCTL and shBMI1 neurons treated with beta-secretase inhibitor (BSI) or vehicle control. FIG. 3H: Intracellular and extracellular Ab42 levels in shCTL (n=3) and shBMl1 (n=3) neurons by ELISA. […]

shBMI1 neurons [2] = assay: Ab42 levels by ELISA in shBMI1 neurons treated with BSI (FIG. 3H); type: cell-based, human; settings: BSI vs vehicle control
Description: as §1

shBMI1 neurons [3] = type: cell-based, human
Description: FIG. 5 is a panel with pictures and graphs illustrating that BMI1 deficiency in neurons results in activation of MAPT, GSK3b and p53. FIG. 5A: Immunoblots for AD-related proteins in shCTL, shBMI1 and BMI1 overexpressing (BMI1 OE) neurons. Protein expression ratios were established using Ponceau staining and where expression in shCTL neurons was set as 1. FIG. 5B: Confocal analysis of F-Actin (phalloidin), amyloid (PA3), p-Tau (PHF1) and activated caspase-3 (Casp3a) in shBMI1 neurons treated with DMSO, β-secretase inhibitor (BSI), γ-secretase inhibitor (GSI) or y-secretase modulator (GSM). Quantification was established using shCTL neurons set as 1. Scale bar: 40 μm.
Human embryonic stem cells were differentiated into cortical neurons. The differentiation protocol was based on a previous study (Espuny-Camacho, I., et al., Pyramidal neurons derived from human pluripotent stem cells integrate efficiently into mouse brain circuits in vivo. Neuron 77, 440-456, (2013)). However, the Noggin agonist LDN193189 was used to reduce recombinant Noggin concentration. The H9 (WiCell™) and HUES9 (Harvard Stem Cell Institute) cell lines were dissociated using Accutase™ (Innovative Cell Technology #AT-104) and platted on growth factor reduced Matrigel™ (Corning #356231) in PeproGrow™ hES cell media (PeproTech #BM-hESC) supplemented with ROCK™ inhibitor (Y-27632; 10 μM, Cayman Chemical #10005583). Upon 70% of confluency, the media was changed to DDM supplemented with B27 (1× final), Noggin (10 ng/ml, PeproTech #120-10C) and LDN193189 (0.5 μM; Sigma #SML0559). The medium was changed every day. After 16 days of differentiation, the medium was changed to DDM/B27 and replenished every day. At day 24, neural progenitors were manually detached from the plate and mixed with lentiviral supernatant for 30 min at 37° C. Infected neural progenitors were subsequently mixed in DDM/B27 supplemented with ROCK™ inhibitor (Y-27632; 10 μM) and platted on growth factor reduced Matrigel™ coated plates or chamber slides (LabTek™ #154534). Five days after the dissociation/infection, half of the medium was changed for Neurobasal™ A media supplemented with B27 (1× final) and changed again every three days. For 3D cultures, neural progenitors at day 24 were mixed with ice-cold growth factor reduced Matrigel™ (1:20 dilution) and plated onto 8-well chamber slides. After 30 min of incubation at 37° C., fresh Neurobasal™ A/B27 were added.
Sequence-specific oligonucleotides stretch shRNA designed to target the BMI-1 ORF (accession No.: BC011652): were synthetized. Oligo#1 (nt 1061-1081) 5′-CCTAATACT TTCCAGATTGAT-3′ (SEQ ID NO: 3) and oligoScramble (nt 573-591) 5′-GGTACTTCATTGATGCCAC-3′ (SEQ ID NO: 4) were used in this study. These sequences are followed by the loop sequence (TTCAAGAGA) (SEQ ID NO: 5) and finally the reverse complements of the targeting sequences. The double stranded shRNA sequences were cloned downstream of the H1P promoter of the H1 P-UbqC-HygroEGFP plasmid using Age1, SmaI, and XbaI cloning sites. The shRNA-expressing lentiviral plasmids were cotransfected with plasmids pCMVdR8.9 and pHCMV-G into 293FT packaging cells using Lipofectamin™ (Invitrogen) according to the manufacturers instructions. Viral containing media were collected, filtered, and concentrated by ultracentrifugation. Viral titers were measured by serial dilution on 293T cells followed by microscopic analysis 48 hr later. For viral transduction, lentiviral vectors were added to dissociated cells prior to plating. […]

sAD patients = settings: tested and abandoned in 2014 {De Strooper; cited from earlier work
[4] = BMI1-deficient neurons, working concentration BSI 1 μM, GSI 0.5 μM, GSM 30 μM, FIG. 5B

Row | SMILES | amyloid immunoreactivity (antibodies against Ab42) (shBMI1 neurons [1]) | amyloid (Ab42) concentration by ELISA (shBMI1 neurons [2]) | toxicity for BMI1-knockdown human cortical neurons (shBMI1 neurons [3]) | p-Tau localization (shBMI1 neurons [3]; BMI1-deficient neurons, GSI 0.5 μM, FIG. 5B) | amyloid immuno-reactivity (PA3) / C99/amyloid accumulation (shBMI1 neurons [3]; [4]) | p-Tau (PHF1) immuno-reactivity / intensity (shBMI1 neurons [3]; [4]) | most pathological parameters (shBMI1 neurons [3]; BMI1-deficient neurons, working concentration GSI 0.5 μM, GSM 30 μM, FIG. 5B) | neuro-toxicity in sAD patients (sAD patients)
1 | C[C@@H](NC(=O)c1cc(C(=O)N[C@@H](Cc2ccccc2)[C@H](O)CNC2CC2)cc(N(C)S(C)(=O)=O)c1)c1ccccc1 [BSI, BSI-IV] | highly reduced | normalized |  |  |  |  |  | 
2 | C[C@H](NC(=O)Cc1cc(F)cc(F)c1)C(=O)N[C@H](C(=O)OC(C)(C)C)c1ccccc1 [GSI, DAPT] |  |  | toxic | re-localization of p-Tau to the neuronal soma suggested tangle formation | reached saturation levels | reduced | did not improve | high
